Literature values in US9439985B2, “Compositions for radiolabeling diethylenetriaminepentaacetic acid (DTPA)-dextran” (Navidea Biopharmaceuticals, Inc., priority 2009, dated 2016).

Key:
[1] = tested on: mannose-terminated glycoprotein receptors; conditions: in vitro; Vera et al.
[2] = tested on: mannose-binding glycoprotein receptors in macrophages and dendritic cells present in the sentinel node; conditions: rabbit; Hoh et al.

binding to mannose-terminated glycoprotein receptors [1] | Substance | biodistribution after injection [2]
binds avidly | DTPA-mannosyl-dextran | –
– | 99mTc-DTPA-mannosyl-dextran | diffuses into lymph channels, flows to the sentinel node, and binds to mannose-binding glycoprotein receptors
